Results published in patent US20160177395A1, “BIOMARKERS FOR THE PREDICTION OF RENAL INJURY” (priority 2007, published 2016).
Values joined by “and” are separate entries in the source; they are usually repeats but may differ in a detail not shown here. Equal entries are not always repeated.

Tested on: kidney tissues of treated or untreated rats
Test: Real-time qRT-PCR of marker transcripts in kidney tissue panel, discovery stage (Table 22)
Assay type: in vivo, rat
Design: AI502869_DB71_seg0 normalized Real Time PCR expression: unit not given beside the values
Settings: listed as CadCl; for normalized Real Time PCR RATRAB13X_DB81_seg15-17 / normalized Real Time PCR RATRAB13X_DB81_seg22 / normalized Real Time PCR W33294_DB81_seg23 / normalized Real Time PCR W33294_DB81_seg44 / normalized Real Time PCR MMU09507_DB81_seg15 / normalized Real Time PCR MUSCYCG1R_DB81_seg19-20: kidney
Experimental: Before RT preparation the RNA was treated with DNA-free (Ambion, cat. No. AM1906) DNase treatment and removal—according to manufacturer protocol. DNase procedure was repeated until no DNA is detected in a PCR reaction using the RNA samples.
The mixture is then incubated for 5 min at 65° C. and then quickly chilled on ice. Thereafter, 20 μl of 5× SuperscriptII first strand buffer (Invitrogen, Cat. No. Y00146), 9.6 μl 0.1M DTT (Invitrogen, Cat. No. Y00147) and 160 units RNasin (Promega, Cat. No. N251A) are added, and the mixture is incubated for 10 min at 25° C., followed by further incubation at 42° C. for 2 min. […] The resulting cDNA is diluted 1:20 in TE buffer (10 mM Tris pH=8, 1 mM EDTA pH=8).
cDNA (5 μl), prepared as described above, is used as a template in Real-Time PCR reactions using the SYBR Green I assay (PE Applied Biosystem) with specific primers in 100 nM concentration if not indicated otherwise and UNG Enzyme (Eurogentech or equal) Amplification is effected as follows: 50° C. for 2 min, 95° C. for 10 min, and then 40 cycles of 95° C. for 15 sec, followed by 60° C. for 1 min (if not indicated otherwise). Amplification step is followed by dissociation step. Detection is performed by using the PE Applied Biosystem SDS 7000. The cycle in which the reactions achieved a threshold level (Ct) of fluorescence is registered and is used to calculate the relative transcript quantity in the RT reactions. Non-detected samples are assigned Ct value of 41 and are calculated accordingly. The relative quantity is calculated using the equation Q=efficiencŷ-Ct. The efficiency of the PCR reaction is calculated from a standard curve, created by using serial dilutions of several reverse transcription (RT) reactions. To minimize inherent differences in the RT reaction, the resulting relative quantities are normalized to normalization factor calculated as follows: […]
The relative quantity (Q) of each housekeeping gene in each sample is calculated as described above. In order to calculate the “relative Q relative to MED” each Q for each HSKP gene is divided by the median quantity of this gene in all panel samples. To finally achieve the normalization factor of each sample the geometric mean of all four “relative Q relative to MED” was calculated. The normalization factor was then used for further calculations.
The markers of the present invention were tested with regard to their expression in a panel of kidney tissues samples from treated and control rats. Unless otherwise noted, all experimental data relates to the novel polynucleotides and proteins of the present invention, named according to the segment being tested (as expression was tested through RT-PCR as described). Tests were then performed as described in the “Materials and Experimental Procedures” section above.
The qRT-PCR measurements were normalized according to each samples normalization factor as described in “RT Preparation and Real-Time qRT-PCR Analysis” and further multiplied by a constant factor for ease of viewing.

[1] = rat kidney, day1, individual animals (F and M)
[2] = rat kidney, day1, individual animals
[3] = rat kidney, day5, individual animals (F and M)

[Cl][Cd][Cl] [Cadmium chloride]
normalized Real Time PCR RATRAB13X_DB81_seg15-17 (female rats, day1): 1.63 and 1.8 and 1.55 | normalized Real Time PCR RATRAB13X_DB81_seg22 (female rats, day1): 1.73 and 1.83 and 1.16 | normalized Real Time PCR W33294_DB81_seg23 (female rats, day1): 1.9 and 1.74 and 1.36 | normalized Real Time PCR W33294_DB81_seg44 (female rats, day1): 1.79 and 1.39 and 1.57 | normalized Real Time PCR MMU09507_DB81_seg15 (female rats, day5): 0.87 and 0.56 | normalized Real Time PCR MUSCYCG1R_DB81_seg19-20 (female rats, day5): 1.21 and 1.01 | normalized Real Time PCR RATRAB13X_DB81_seg15-17 (female rats, day5): 1.81 and 0.97 | normalized Real Time PCR RATRAB13X_DB81_seg22 (female rats, day5): 1.56 and 1.1 | normalized Real Time PCR W33294_DB81_seg23 (female rats, day5): 1.76 and 1.7 | normalized Real Time PCR W33294_DB81_seg44 (female rats, day5): 2.05 and 1.37 | normalized Real Time PCR MUSCYCG1R_DB81_seg19-20 (female rats, day28): 0.54 and 0.62 and 0.56 | normalized Real Time PCR RATRAB13X_DB81_seg15-17 (female rats, day28): 0.83 and 0.89 and 0.82 | normalized Real Time PCR RATRAB13X_DB81_seg22 (female rats, day28): 0.7 and 0.9 and 0.46 | normalized Real Time PCR W33294_DB81_seg23 (female rats, day28): 0.94 and 0.97 and 0.85 | normalized Real Time PCR W33294_DB81_seg44 (female rats, day28): 0.88 and 0.69 and 0.7 | normalized Real Time PCR MUSCYCG1R_DB81_seg19-20 (male rats, day1): 0.58 and 1.03 and 0.78 | normalized Real Time PCR RATRAB13X_DB81_seg15-17 (male rats, day1): 0.73 and 0.92 and 1.01 | normalized Real Time PCR RATRAB13X_DB81_seg22 (male rats, day1): 0.92 and 1.29 and 0.67 | normalized Real Time PCR W33294_DB81_seg23 (male rats, day1): 0.62 and 0.31 and 0.37 | normalized Real Time PCR MMU09507_DB81_seg15 (male rats, day5): 0.33 and 0.49 and 0.38 | normalized Real Time PCR MUSCYCG1R_DB81_seg19-20 (male rats, day5): 1.22 and 1.12 and 1.04 | normalized Real Time PCR RATRAB13X_DB81_seg15-17 (male rats, day5): 1.18 and 0.88 and 1.07 | normalized Real Time PCR RATRAB13X_DB81_seg22 (male rats, day5): 1.65 and 1.58 and 1.21 | normalized Real Time PCR W33294_DB81_seg23 (male rats, day5): 1.41 and 1.45 and 1.03 | normalized Real Time PCR W33294_DB81_seg44 (male rats, day5): 1.32 and 1.43 and 1.42 | normalized Real Time PCR MMU09507_DB81_seg15 (male rats, day28): 0.42 and 0.45 | normalized Real Time PCR RATRAB13X_DB81_seg22 (male rats, day28): 0.63 and 0.87 and 0.49 | normalized Real Time PCR W33294_DB81_seg23 (male rats, day28): 0.7 and 0.65 | normalized Real Time PCR W33294_DB81_seg44 (male rats, day28): 0.73 and 0.53 | H33998_DB71_seg19 normalized Real Time PCR [1]: 2.29 and 2.51 and 0.01 and 0.76 and 0.66 and 0.69 | MUSCYCG1R_DB81_seg15-17 normalized Real Time PCR [1]: 1.91 and 1.36 and 1.68 and 0.61 and 0.73 and 0.36 | RATLRFI_DB71_seg9 normalized Real Time PCR [1]: 0.27 (2×) and 0.33 and 0.32 and 0.36 and 0.23 | RATRAB13X_DB71_seg11-13 normalized Real Time PCR [1]: 0.95 (2×) and 1.2 and 1.05 and 1.22 and 1.14 | RNU24174_DB71_seg8 normalized Real Time PCR [1]: 0.3 and 0.29 and 0.49 and 0.2 and 0.4 and 0.22 | W41270_DB81_seg11 normalized Real Time PCR [1]: 1.44 and 1.78 and 1.48 and 0.5 and 0.62 and 0.43 | W64472_DB81_seg2 normalized Real Time PCR [1]: 1.07 (2×) and 1.1 and 0.55 and 1.45 and 0.41 | W83813_DB81_seg27 normalized Real Time PCR [1]: 2.07 and 2.19 and 1.66 and 0.47 and 0.51 and 0.65 | AA686189_DB71_seg6 normalized Real Time PCR expression [2]: 0.38 (2×) and 0.52 and 0.36 and 0.59 and 0.64 | AA799594_DB71_seg0 normalized Real Time PCR expression [2]: 1.25 and 1.43 and 1.27 and 1.09 and 1.15 and 1.05 | AA964541_DB71_seg0 normalized Real Time PCR expression [2]: 0.41 and 0.55 and 0.3 and 0.28 and 0.6 and 0.56 | AI045075_DB71_seg6 normalized Real Time PCR expression [2]: 0.6 and 0.54 and 0.5 and 0.66 and 0.87 and 0.84 | AI454051_DB71_seg0 normalized Real Time PCR expression [2]: 1.47 and 1.46 and 1.08 and 1.48 and 2.13 and 0.77 | AI502869_DB71_seg0 normalized Real Time PCR expression [2]: 0.54 and 1.37 and 0.56 and 1.14 and 2.59 and 0.86 | AW919147_DB71_seg0 normalized Real Time PCR expression [2]: 1 (2×) and 1.21 and 0.76 and 1.1 and 1.02 | BI293562_DB71_seg2 normalized Real Time PCR expression [2]: 0.36 and 0.4 and 0.61 and 0.5 and 0.51 and 0.39 | H31045_DB71_seg5 normalized Real Time PCR expression [2]: 1.97 and 0.39 (2×) and 0.19 (2×) and 0.18 | H31799_DB71_seg23 normalized Real Time PCR expression [2]: 1 (2×) and 1.24 and 0.91 and 0.9 and 1.15 | H31883_DB71_seg13 normalized Real Time PCR expression [2]: 0.73 and 0.63 and 0.87 and 0.65 and 0.71 and 0.78 | H33998_DB71_seg19 normalized Real Time PCR [3]: 2 and 0.82 and 1.39 and 1.36 and 1.64 | MUSCYCG1R_DB81_seg15-17 normalized Real Time PCR [3]: 1.72 and 1.13 and 1.2 and 0.97 and 1.15 | RATLRFI_DB71_seg9 normalized Real Time PCR [3]: 0.35 and 0.31 and 0.17 and 0.18 and 0.29 | RATRAB13X_DB71_seg11-13 normalized Real Time PCR [3]: 0.95 and 0.9 and 0.75 (2×) and 0.62 | RNU24174_DB71_seg8 normalized Real Time PCR [3]: 0.33 and 0.27 and 0.12 (2×) and 0.13
